# Patent US20240207379A1, “STRATEGIES TO PREVENT AND/OR TREAT IMMUNE RESPONSES TO SOLUBLE ALLOFACTORS” (IMCYSE SA, priority 2008, published 2024)
# Columns and labels:
# [1] = system: murine splenic B cells; test: Induction into apoptosis of splenic B cells of naïve mice by CD4+ T cells expanded with peptide (annexin V / 7-AAD Facs); type: cell-based, C57BI/6 mice
# Procedure: FIG. 1. The bars in this Figure illustrate the viability of murine splenic B cells incubated under different conditions and evaluated by Facs analysis of annexin V binding and 7-AAD (two markers of apoptosis). • B (wt-pep): murine splenic B cells incubated with natural (wild-type) T-cell epitope derived from human anti-fVIII antibody; • B (cc-pep): murine splenic B cells incubated with T-cell epitope derived from human anti-fVIII antibody, wherein said T-cell epitope is modified by attaching the amino acids CHGC (SEQ ID NO: 20) to the N-terminus of the epitope; • B (cc-pep)+ T (cc-pep): murine splenic B cells incubated with modified anti-fVIII antibody T-cell epitope and with T cells expanded with modified T-cell epitope (modification as in “B (cc-pep)”); • B (wt-pep)+ T (cc-pep): murine splenic B cells incubated with wild-type anti-fVIII antibody T-cell epitope and T cells expanded with the corresponding modified T-cell epitope.
# It was determined whether naïve B cells presenting a class II restricted T cell epitope derived from a BCR idiotype could be deleted by recognition and activation of T cells elicited to a specific anti-factor VIII antibody carrying the same idiotype. […]
# [2] = system: CFSE-labelled CD4(F8-) effector CD4+ T cells; test: Apoptosis of factor VIII-specific effector CD4+ T cells by cytolytic CD4+ T cells elicited with modified factor VIII epitope (Annexin V / 7-AAD); type: cell-based, factor VIII KO mice; conditions: APC (spleen B cells) loaded with 5 μg/ml huFVIII and 1 µM peptide, 72 h at 37° C., baseline mortality subtracted
# Source text: FIG. 2. Apoptosis of allofactor-specific effector T-cells by cytolytic CD4+ T-cells induced by a T-cell epitope derived from said allofactor and modified by attaching a thioreductase motif. The allofactor used was factor VIII. See Example 5 for more details.
# Polyclonal effector CD4+ T cells were obtained from the spleen of factor VIII KO mice immunised with 2 IU of recombinant human FVIII (CD4(F8-)) and purified using anti-CD4 magnetic beads. The cells were then labelled with CFSE.
# Induction of apoptosis as measured by of CFSE-labelled cells was then measured by Annexin V and 7-AAD staining after incubating such cells with APC (spleen B cells) loaded with 5 μg/ml huFVIII and 1 µM of peptide of SEQ ID NO:5 (CGHCGGFTNMFATWSPSK, corresponding to the 2196-2207 amino acid sequence of the C2 domain of human factor VIII, modified by addition of a thioreductase motif (underlined) separated by 2 glycines from the Factor VIII T-cell epitope). Apoptosis was measured after 72 h culture at 37° C. When CFSE-labelled CD4(F8-) cells were co-cultured with CD4+ T cells obtained from mice immunised with a synthetic peptide of SEQ ID NO:5 (cytolytic CD4+ T cells), significant apoptosis was induced. […] When CFSE-labelled CD4(F8−) cells were co-cultured in the presence of a double number of unlabeled CD4(F8−) cells, no apoptosis was induced (“CD4(F8−)” caption in FIG. 2). […]
sequence,measurement,setting,value
"YCAVPDDPDA (T-cell epitope of CDR3 of anti-factor VIII antibody BO2C11) [SEQ ID NO:1, reference compound]",influence on the survival of control B cells of T cells expanded with the peptide,"[1]; incubation period of 18 h, data not shown",no or only little influence
CGHCGGFTNMFATWSPSK (modified human factor VIII T-cell epitope; MISC_FEATURE - thioreductase motif; MISC_FEATURE - Gly-Gly-linker) [SEQ ID NO:5],apoptosis of CFSE-labelled CD4(F8-) cells co-cultured with cytolytic CD4+ T cells from mice immunised with the peptide,[2]; CD4(F8+) pool1,6.6%
same,apoptosis of CFSE-labelled CD4(F8-) cells co-cultured with cytolytic CD4+ T cells from mice immunised with the peptide,[2]; CD4(F8+)pool2,8.4%
CHGCYCAVPDPDA (modified T-cell epitope of CDR3 of anti-factor VIII antibody BO2C11; MISC_FEATURE - thioreductase motif) [SEQ ID NO:2],induction into apoptosis of B cells by T cells expanded with the peptide,"[1]; B cells loaded with either peptide of SEQ ID NO:1 or SEQ ID NO:2, FIG. 1",induced into apoptosis
